Non-standard residues stand in square brackets, D forms with d. Residues, ends and D or L forms follow the SMILES beside them. Cha = N[C@@H](CC1CCCCC1)C(=O)O
How the values were obtained:
HIV-1 NL4-3 DTV = conditions: read-out: IC50 DTV, P4-CCR5 cells, peptide 2 h before infection, readout three days after infection
Outline: (§1)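 P4-CCR5 cells (CD4, CCR5, CXCR4, HIV-1 promoter-driven β-galactosidase) pretreated 2 h with peptide, then infected with virus containing 1 ng p24 antigen and incubated overnight. Cells washed and cultured without peptide; three days post-infection infectivity read by chemiluminescent β-galactosidase assay, in quintuplicate.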

X4-tropic HIV-1 NL4-3 = conditions: read-out: IC50 NL4-3; P4-CCR5 cells, HIV-1 NL4-3, peptide 2 h before infection, readout three days after infection
Outline: as §1

## CC[C@H](C)[C@H](NC(=O)[C@H](C)NC(=O)[C@H](CCC(=O)O)NC(=O)[C@@H](N)CC(C)C)C(=O)N1CCC[C@H]1C(=O)N[C@@H](CCSC)C(=O)N[C@@H](CO)C(=O)N[C@H](C(=O)N1CCC[C@H]1C(=O)N1CCC[C@@H]1C(=O)N[C@@H](CCC(=O)O)C(=O)N[C@H](C(=O)NCC(=O)N[C@@H](Cc1ccccc1)C(=O)NCC(=O)N[C@@H](CCCCN)C(=O)N1CCC[C@H]1C(=O)N[C@@H](Cc1ccccc1)C(=O)N[C@H](C(=O)N[C@@H](Cc1ccccc1)C(=O)O)C(C)C)C(C)C)[C@@H](C)CC [VIR-190, LEAIPMSIPpEVGFGKPFVF] (H-LEAIPMSIP[dP]EVGFGKPFVF-OH)
HIV-1 NL4-3 DTV
  IC50: 3.11 µM
X4-tropic HIV-1 NL4-3
  IC50: 1.84 µM

## CC[C@H](C)[C@H](NC(=O)[C@H](C)NC(=O)[C@H](CCC(=O)O)NC(=O)[C@@H](N)CC(C)C)C(=O)N1CCC[C@H]1C(=O)N[C@@H](CCSC)C(=O)N[C@@H](CO)C(=O)N[C@H](C(=O)N1CCC[C@H]1C(=O)N1CCC[C@@H]1C(=O)N[C@@H](CCC(=O)O)C(=O)N[C@H](C(=O)N[C@@H](CC(C)C)C(=O)N[C@@H](Cc1ccccc1)C(=O)NCC(=O)N[C@@H](CCCCN)C(=O)N1CCC[C@H]1C(=O)N[C@@H](Cc1ccccc1)C(=O)N[C@H](C(=O)N[C@@H](Cc1ccccc1)C(=O)O)C(C)C)C(C)C)[C@@H](C)CC [VIR-191, LEAIPMSIPpEVLFGKPFVF] (H-LEAIPMSIP[dP]EVLFGKPFVF-OH)
HIV-1 NL4-3 DTV
  IC50: 0.56 µM
X4-tropic HIV-1 NL4-3
  IC50: 1.79 µM

## CC[C@H](C)[C@H](NC(=O)[C@H](C)NC(=O)[C@H](CCC(=O)O)NC(=O)[C@@H](N)CC(C)C)C(=O)N1CCC[C@H]1C(=O)N[C@@H](CCSC)C(=O)N[C@@H](CO)C(=O)N[C@H](C(=O)N1CCC[C@H]1C(=O)N1CCC[C@@H]1C(=O)N[C@@H](CCC(=O)O)C(=O)N[C@H](C(=O)N[C@@H](Cc1ccccc1)C(=O)N[C@@H](Cc1ccccc1)C(=O)NCC(=O)N[C@@H](CCCCN)C(=O)N1CCC[C@H]1C(=O)N[C@@H](Cc1ccccc1)C(=O)N[C@H](C(=O)N[C@@H](Cc1ccccc1)C(=O)O)C(C)C)C(C)C)[C@@H](C)CC [VIR-192, LEAIPMSIPpEVFFGKPFVF] (H-LEAIPMSIP[dP]EVFFGKPFVF-OH)
HIV-1 NL4-3 DTV
  IC50: 1.21 µM
X4-tropic HIV-1 NL4-3
  IC50: 1.54 µM

## CC[C@H](C)[C@H](NC(=O)[C@H](C)NC(=O)[C@H](CCC(=O)O)NC(=O)[C@@H](N)CC(C)C)C(=O)N1CCC[C@H]1C(=O)N[C@@H](CCSC)C(=O)N[C@@H](CO)C(=O)N[C@H](C(=O)N1CCC[C@H]1C(=O)N1CCC[C@@H]1C(=O)N[C@@H](CCC(=O)O)C(=O)N[C@@H](Cc1ccccc1)C(=O)N[C@@H](C)C(=O)N[C@@H](Cc1ccccc1)C(=O)N[C@@H](CC(N)=O)C(=O)N[C@@H](CCCCN)C(=O)N1CCC[C@H]1C(=O)N[C@@H](Cc1ccccc1)C(=O)N[C@H](C(=O)N[C@@H](Cc1ccccc1)C(=O)O)C(C)C)[C@@H](C)CC [VIR-193, LEAIPMSIPpEFAFNKPFVF] (H-LEAIPMSIP[dP]EFAFNKPFVF-OH)
HIV-1 NL4-3 DTV
  IC50: 1.38 µM
X4-tropic HIV-1 NL4-3
  IC50: 1.74 µM

## CC[C@H](C)[C@H](NC(=O)[C@H](C)NC(=O)[C@H](CCC(=O)O)NC(=O)[C@@H](N)CC(C)C)C(=O)N1CCC[C@H]1C(=O)N[C@@H](CCSC)C(=O)N[C@@H](CO)C(=O)N[C@H](C(=O)N1CCC[C@H]1C(=O)N1CCC[C@@H]1C(=O)N[C@@H](CCC(=O)O)C(=O)N[C@H](C(=O)N[C@@H](Cc1ccccc1)C(=O)N[C@@H](Cc1ccccc1)C(=O)N[C@@H](CC(N)=O)C(=O)N[C@@H](CCCCN)C(=O)N1CCC[C@H]1C(=O)N[C@@H](Cc1ccccc1)C(=O)N[C@H](C(=O)N[C@@H](Cc1ccccc1)C(=O)O)C(C)C)C(C)C)[C@@H](C)CC [VIR-197, LEAIPMSIPpEVFFNKPFVF] (H-LEAIPMSIP[dP]EVFFNKPFVF-OH)
HIV-1 NL4-3 DTV
  IC50: 1.44 µM
X4-tropic HIV-1 NL4-3
  IC50: 1.27 µM

## CC[C@H](C)[C@H](NC(=O)[C@H](C)NC(=O)[C@H](CCC(=O)O)NC(=O)[C@@H](N)CC(C)C)C(=O)N1CCC[C@H]1C(=O)N[C@@H](CCSC)C(=O)N[C@@H](CO)C(=O)N[C@H](C(=O)N1CCC[C@H]1C(=O)N1CCC[C@@H]1C(=O)N[C@@H](CCC(=O)O)C(=O)N[C@@H](Cc1ccccc1)C(=O)N[C@@H](CC(C)C)C(=O)N[C@@H](Cc1ccccc1)C(=O)N[C@@H](CC(N)=O)C(=O)N[C@@H](CCCCN)C(=O)N1CCC[C@H]1C(=O)N[C@@H](Cc1ccccc1)C(=O)N[C@H](C(=O)N[C@@H](Cc1ccccc1)C(=O)O)C(C)C)[C@@H](C)CC [VIR-199, LEAIPMSIPpEFLFNKPFVF] (H-LEAIPMSIP[dP]EFLFNKPFVF-OH)
HIV-1 NL4-3 DTV
  IC50: 1.65 µM
X4-tropic HIV-1 NL4-3
  IC50: 2.14 µM

## CC[C@H](C)[C@H](NC(=O)[C@@H]1CCCN1C(=O)[C@@H](NC(=O)[C@H](C)NC(=O)[C@H](CCC(=O)O)NC(=O)[C@@H](N)CC(C)C)[C@@H](C)CC)C(=O)N[C@@H](CO)C(=O)N[C@H](C(=O)N1CCC[C@H]1C(=O)N1CCC[C@@H]1C(=O)N[C@@H](CCC(=O)O)C(=O)N[C@H](C(=O)N[C@@H](C)C(=O)N[C@@H](Cc1ccccc1)C(=O)N[C@@H](CC(N)=O)C(=O)N[C@@H](CCCCN)C(=O)N1CCC[C@H]1C(=O)N[C@@H](Cc1ccccc1)C(=O)N[C@H](C(=O)N[C@@H](Cc1ccccc1)C(=O)O)C(C)C)C(C)C)[C@@H](C)CC [VIR-229, LEAIPISIPpEVAFNKPFVF] (H-LEAIPISIP[dP]EVAFNKPFVF-OH)
HIV-1 NL4-3 DTV
  IC50: 2.26 µM
X4-tropic HIV-1 NL4-3
  IC50: 1.28 µM

## CC[C@H](C)[C@H](NC(=O)[C@H](CC(=O)O)NC(=O)[C@H](CCC(=O)O)NC(=O)[C@@H](N)CC(C)C)C(=O)N1CCC[C@H]1C(=O)N[C@@H](CCSC)C(=O)N[C@@H](CO)C(=O)N[C@H](C(=O)N1CCC[C@H]1C(=O)N1CCC[C@@H]1C(=O)N[C@@H](CCC(=O)O)C(=O)N[C@H](C(=O)N[C@@H](C)C(=O)N[C@@H](Cc1ccccc1)C(=O)N[C@@H](CC(N)=O)C(=O)N[C@@H](CCCCN)C(=O)N1CCC[C@H]1C(=O)N[C@@H](Cc1ccccc1)C(=O)N[C@H](C(=O)N[C@@H](Cc1ccccc1)C(=O)O)C(C)C)C(C)C)[C@@H](C)CC [VIR-252, LEDIPMSIPpEVAFNKPFVF] (H-LEDIPMSIP[dP]EVAFNKPFVF-OH)
HIV-1 NL4-3 DTV
  IC50: 1.87 µM
X4-tropic HIV-1 NL4-3
  IC50: 1.75 µM

## CC[C@H](C)[C@H](NC(=O)[C@H](CCCCN)NC(=O)[C@H](CCC(=O)O)NC(=O)[C@@H](N)CC(C)C)C(=O)N1CCC[C@H]1C(=O)N[C@@H](CCSC)C(=O)N[C@@H](CO)C(=O)N[C@H](C(=O)N1CCC[C@H]1C(=O)N1CCC[C@@H]1C(=O)N[C@@H](CCC(=O)O)C(=O)N[C@H](C(=O)N[C@@H](C)C(=O)N[C@@H](Cc1ccccc1)C(=O)N[C@@H](CC(N)=O)C(=O)N[C@@H](CCCCN)C(=O)N1CCC[C@H]1C(=O)N[C@@H](Cc1ccccc1)C(=O)N[C@H](C(=O)N[C@@H](Cc1ccccc1)C(=O)O)C(C)C)C(C)C)[C@@H](C)CC [VIR-255, LEKIPMSIPpEVAFNKPFVF] (H-LEKIPMSIP[dP]EVAFNKPFVF-OH)
HIV-1 NL4-3 DTV
  IC50: 1.23 µM
X4-tropic HIV-1 NL4-3
  IC50: 0.65 µM

## CC[C@H](C)[C@H](NC(=O)[C@H](C)NC(=O)[C@H](CCC(=O)O)NC(=O)[C@@H](N)CC(C)C)C(=O)N1CCC[C@H]1C(=O)N[C@@H](CCSC)C(=O)N[C@@H](CO)C(=O)N[C@H](C(=O)N1CCC[C@H]1C(=O)N1CCC[C@@H]1C(=O)N[C@@H](CCC(=O)O)C(=O)N[C@H](C(=O)N[C@@H](CC1CCCCC1)C(=O)N[C@@H](Cc1ccccc1)C(=O)N[C@@H](CC(N)=O)C(=O)N[C@@H](CCCCN)C(=O)N1CCC[C@H]1C(=O)N[C@@H](Cc1ccccc1)C(=O)N[C@H](C(=O)N[C@@H](Cc1ccccc1)C(=O)O)C(C)C)C(C)C)[C@@H](C)CC [VIR-257, LEAIPMSIPpEV(cyclohexylalanine)FNKPFVF] (H-LEAIPMSIP[dP]EV[Cha]FNKPFVF-OH)
HIV-1 NL4-3 DTV
  IC50: 0.66 µM
X4-tropic HIV-1 NL4-3
  IC50: 0.86 µM

Reference: patent US7655629B2, “Peptides and their use for the treatment of HIV infections” (priority 2002, dated 2010)
